Measurements published in PubChem BioAssay (NCI).
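Step 1: Grow cells in 96-well plates. Step 2: Expose to compound for 48 hours at 5 concentrations. Step 3: Interpolate endpoints linearly; if unreached, use highest concentration. GI50: concentration for 50% inhibition of growth. TGI denotes the concentration required for complete inhibition of growth.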

Columns and labels:
Assay in all cases: growth of human tumour cells (NCI), 48 h
SNB-19 CNS = tested on: SNB-19 CNS
COLO 205 colon = tested on: COLO 205 colon
MCF7 breast = tested on: MCF7 breast
HL-60(TB) leukemia = tested on: HL-60(TB) leukemia
OVCAR-4 ovarian = tested on: OVCAR-4 ovarian
EKVX NSCLC = tested on: EKVX NSCLC
HCT-15 colon = tested on: HCT-15 colon
SN12C renal = tested on: SN12C renal
OVCAR-5 ovarian = tested on: OVCAR-5 ovarian
SF-268 CNS = tested on: SF-268 CNS
T-47D breast = tested on: T-47D breast
ACHN renal = tested on: ACHN renal
SK-MEL-5 melanoma = tested on: SK-MEL-5 melanoma
CAKI-1 renal = tested on: CAKI-1 renal
HT29 colon = tested on: HT29 colon
RXF 393 renal = tested on: RXF 393 renal
SNB-75 CNS = tested on: SNB-75 CNS
HOP-62 NSCLC = tested on: HOP-62 NSCLC
U251 CNS = tested on: U251 CNS
BT-549 breast = tested on: BT-549 breast
UACC-257 melanoma = tested on: UACC-257 melanoma
UACC-62 melanoma = tested on: UACC-62 melanoma
OVCAR-3 ovarian = tested on: OVCAR-3 ovarian
NCI-H522 lung = tested on: NCI-H522 lung
HS 578T breast = tested on: HS 578T breast
786-0 renal = tested on: 786-0 renal
TK-10 renal = tested on: TK-10 renal
OVCAR-8 ovarian = tested on: OVCAR-8 ovarian
HCC-2998 colon = tested on: HCC-2998 colon
CCRF-CEM leukemia = tested on: CCRF-CEM leukemia
NCI-H226 lung = tested on: NCI-H226 lung
A549 NSCLC = tested on: A549 NSCLC
LOX IMVI melanoma = tested on: LOX IMVI melanoma
MDA-MB-231 breast = tested on: MDA-MB-231 breast
MOLT-4 leukemia = tested on: MOLT-4 leukemia
HOP-92 NSCLC = tested on: HOP-92 NSCLC
A498 renal = tested on: A498 renal
IGROV1 ovarian = tested on: IGROV1 ovarian
SK-MEL-2 melanoma = tested on: SK-MEL-2 melanoma
PC-3 prostate = tested on: PC-3 prostate
M14 melanoma = tested on: M14 melanoma
HCT-116 colon = tested on: HCT-116 colon
RPMI-8226 leukemia = tested on: RPMI-8226 leukemia
MDA-MB-435 = tested on: MDA-MB-435
NCI/ADR-RES ovarian = tested on: NCI/ADR-RES ovarian
SK-OV-3 ovarian = tested on: SK-OV-3 ovarian
SK-MEL-28 melanoma = tested on: SK-MEL-28 melanoma
KM12 colon = tested on: KM12 colon
MALME-3M melanoma = tested on: MALME-3M melanoma
SW-620 colon = tested on: SW-620 colon
SF-539 CNS = tested on: SF-539 CNS
UO-31 renal = tested on: UO-31 renal
DU-145 prostate = tested on: DU-145 prostate
NCI-H23 lung = tested on: NCI-H23 lung
NCI-H460 lung = tested on: NCI-H460 lung
MDA-MB-468 breast = tested on: MDA-MB-468 breast
SF-295 CNS = tested on: SF-295 CNS
SR leukemia = tested on: SR leukemia
K-562 leukemia = tested on: K-562 leukemia

In the case of CC12CCC3(CCC(=O)NCCCNc4ccnc5cc(Cl)ccc45)[C@@](C)(OO[C@]3(C)O1)O2, the GI50 (SNB-19 CNS) is reported as 7.12 µM, the TGI (SNB-19 CNS) is reported as > 25.5 µM and the GI50 (COLO 205 colon) is reported as 4.99 µM. The TGI (COLO 205 colon) was > 25.5 µM, the GI50 (MCF7 breast) was 1.68 µM and the TGI (MCF7 breast) was > 25.5 µM. It also gave a GI50 (HL-60(TB) leukemia) of 4.94 µM, a TGI (HL-60(TB) leukemia) of 11.7 µM and a GI50 (OVCAR-4 ovarian) of 4.89 µM. For the same compound, the TGI (OVCAR-4 ovarian) was > 25.5 µM, the GI50 (EKVX NSCLC) was 1.99 µM and the TGI (EKVX NSCLC) was 19.4 µM. For the same compound, the GI50 (HCT-15 colon) was 7.9 µM, the TGI (HCT-15 colon) was > 25.5 µM and the GI50 (SN12C renal) was 2.14 µM. For the same compound, the TGI (SN12C renal) was 12.2 µM, the GI50 (OVCAR-5 ovarian) was 4.2 µM and the TGI (OVCAR-5 ovarian) was 16 µM. It also gave a GI50 (SF-268 CNS) of 2.09 µM, a TGI (SF-268 CNS) of 8.55 µM and a GI50 (T-47D breast) of 5.99 µM. The TGI (T-47D breast) was > 25.5 µM, the GI50 (ACHN renal) was 1.16 µM and the TGI (ACHN renal) was 6.73 µM. For the same compound, the GI50 (SK-MEL-5 melanoma) was 4.36 µM, the TGI (SK-MEL-5 melanoma) was 17.2 µM and the GI50 (CAKI-1 renal) was 0.951 µM. For the same compound, the TGI (CAKI-1 renal) was 4.75 µM, the GI50 (HT29 colon) was 6.19 µM and the TGI (HT29 colon) was 23.3 µM. For the same compound, the GI50 (RXF 393 renal) was 0.646 µM, the TGI (RXF 393 renal) was 2.74 µM and the GI50 (SNB-75 CNS) was 0.618 µM. For the same compound, the TGI (SNB-75 CNS) was 3.77 µM, the GI50 (HOP-62 NSCLC) was 1.41 µM and the TGI (HOP-62 NSCLC) was 6.48 µM. The GI50 (U251 CNS) was 4.45 µM, the TGI (U251 CNS) was 11.6 µM and the GI50 (BT-549 breast) was 5.28 µM. The TGI (BT-549 breast) was 15.5 µM, the GI50 (UACC-257 melanoma) was 8.99 µM and the TGI (UACC-257 melanoma) was > 25.5 µM. For the same compound, the GI50 (UACC-62 melanoma) was 5.58 µM, the TGI (UACC-62 melanoma) was > 25.5 µM and the GI50 (OVCAR-3 ovarian) was 3.61 µM. It also gave a TGI (OVCAR-3 ovarian) of 10.8 µM, a GI50 (NCI-H522 lung) of 3.02 µM and a TGI (NCI-H522 lung) of 6.79 µM. The GI50 (HS 578T breast) was 3 µM, the TGI (HS 578T breast) was 14.1 µM and the GI50 (786-0 renal) was 1.79 µM. The TGI (786-0 renal) was 8.62 µM, the GI50 (TK-10 renal) was 1.23 µM and the TGI (TK-10 renal) was 11.3 µM. It also gave a GI50 (OVCAR-8 ovarian) of 4.92 µM, a TGI (OVCAR-8 ovarian) of 12.7 µM and a GI50 (HCC-2998 colon) of 8.01 µM. The TGI (HCC-2998 colon) was > 25.5 µM, the GI50 (CCRF-CEM leukemia) was 3.85 µM and the TGI (CCRF-CEM leukemia) was 11 µM. It also gave a GI50 (NCI-H226 lung) of 1.72 µM, a TGI (NCI-H226 lung) of 15 µM and a GI50 (A549 NSCLC) of 2.99 µM. The TGI (A549 NSCLC) was > 25.5 µM, the GI50 (LOX IMVI melanoma) was 1.34 µM and the TGI (LOX IMVI melanoma) was 4.71 µM. For the same compound, the GI50 (MDA-MB-231 breast) was 1.4 µM, the TGI (MDA-MB-231 breast) was 9.92 µM and the GI50 (MOLT-4 leukemia) was 4.68 µM. It also gave a TGI (MOLT-4 leukemia) of 14.3 µM, a GI50 (HOP-92 NSCLC) of 1.47 µM and a TGI (HOP-92 NSCLC) of 12 µM. For the same compound, the GI50 (A498 renal) was 3.86 µM, the TGI (A498 renal) was 22.7 µM and the GI50 (IGROV1 ovarian) was 2.8 µM. The TGI (IGROV1 ovarian) was 8.22 µM, the GI50 (SK-MEL-2 melanoma) was 8.21 µM and the TGI (SK-MEL-2 melanoma) was > 25.5 µM. For the same compound, the GI50 (PC-3 prostate) was 6.72 µM, the TGI (PC-3 prostate) was > 25.5 µM and the GI50 (M14 melanoma) was 4.36 µM. The TGI (M14 melanoma) was 17.4 µM, the GI50 (HCT-116 colon) was 3.71 µM and the TGI (HCT-116 colon) was 13.3 µM. For the same compound, the GI50 (RPMI-8226 leukemia) was 5.86 µM, the TGI (RPMI-8226 leukemia) was > 25.5 µM and the GI50 (MDA-MB-435) was 4.89 µM. For the same compound, the TGI (MDA-MB-435) was > 25.5 µM, the GI50 (NCI/ADR-RES ovarian) was 5.84 µM and the TGI (NCI/ADR-RES ovarian) was 19.4 µM. It also gave a GI50 (SK-OV-3 ovarian) of 5.46 µM, a TGI (SK-OV-3 ovarian) of 16.1 µM and a GI50 (SK-MEL-28 melanoma) of 8.78 µM. The TGI (SK-MEL-28 melanoma) was > 25.5 µM, the GI50 (KM12 colon) was 4.5 µM and the TGI (KM12 colon) was 24.2 µM. For the same compound, the GI50 (MALME-3M melanoma) was 4.73 µM, the TGI (MALME-3M melanoma) was 19.6 µM and the GI50 (SW-620 colon) was 3.62 µM. The TGI (SW-620 colon) was > 25.5 µM, the GI50 (SF-539 CNS) was 3.38 µM and the TGI (SF-539 CNS) was 7.38 µM. For the same compound, the GI50 (UO-31 renal) was 1.43 µM, the TGI (UO-31 renal) was 6.78 µM and the GI50 (DU-145 prostate) was 3.42 µM. For the same compound, the TGI (DU-145 prostate) was 11.9 µM, the GI50 (NCI-H23 lung) was 3.77 µM and the TGI (NCI-H23 lung) was 11.8 µM. It also gave a GI50 (NCI-H460 lung) of 2.49 µM, a TGI (NCI-H460 lung) of 11.4 µM and a GI50 (MDA-MB-468 breast) of 4.05 µM. It also gave a TGI (MDA-MB-468 breast) of 9.17 µM, a GI50 (SF-295 CNS) of 4.5 µM and a TGI (SF-295 CNS) of 15 µM. For the same compound, the GI50 (SR leukemia) was 3.66 µM, the TGI (SR leukemia) was 16.3 µM and the GI50 (K-562 leukemia) was 5.55 µM. The TGI (K-562 leukemia) was > 25.5 µM.
